Measured values published in patent publication US9587005B2 (priority 2010, dated 2017).
Like-named read-outs stand apart in the source and are kept apart here. *1 amine or outer side, *2 acyl side, *3 side chain or, on linkers, in order; H or OH if unused. Where a SMILES comes first, the peptide text is derived from it. Where no end group is shown, it is not given here. Side-chain parts run from the residue outwards. [ ]: non-standard residue; d: D form. The star is where a group is joined. γGlu = O=C(O)[C@H](CCC(=O)[*:2])N[*:1]; Palmitoyl = CCCCCCCCCCCCCCCC(=O)*; Aib = CC(C)(N)C(=O)O

Tests used:
Assay type in all cases: cell-based
[1] = target: T1, GLP-1 receptor (Homo sapiens, UniProt P43220); experiment: cAMP induction, firefly luciferase reporter assay in HEK293 cells co-transfected with GLP-1 receptor
T1 construct: expressed in transfected cells; host or cells: HEK293
T1 sequence (P43220 24-463): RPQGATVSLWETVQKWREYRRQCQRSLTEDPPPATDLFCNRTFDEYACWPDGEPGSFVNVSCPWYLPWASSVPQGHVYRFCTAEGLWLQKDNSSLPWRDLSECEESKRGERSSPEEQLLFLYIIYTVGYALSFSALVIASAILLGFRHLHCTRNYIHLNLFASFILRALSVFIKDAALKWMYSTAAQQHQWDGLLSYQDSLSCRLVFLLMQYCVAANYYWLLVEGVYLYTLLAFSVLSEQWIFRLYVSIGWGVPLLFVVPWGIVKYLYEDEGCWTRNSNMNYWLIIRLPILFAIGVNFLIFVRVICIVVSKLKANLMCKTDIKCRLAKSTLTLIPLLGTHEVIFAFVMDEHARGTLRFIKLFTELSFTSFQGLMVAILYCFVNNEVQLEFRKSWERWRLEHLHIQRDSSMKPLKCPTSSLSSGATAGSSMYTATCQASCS
Description: (§1) This example describes an exemplary method of testing the biological activity of the peptides of the present disclosures, which method involves assaying cAMP synthesis.

[2] = target: T2, glucagon receptor (Homo sapiens, UniProt P47871); experiment: cAMP induction, firefly luciferase reporter assay in HEK293 cells co-transfected with glucagon receptor
T2 construct: expressed in transfected cells; host or cells: HEK293
T2 sequence (P47871 26-477): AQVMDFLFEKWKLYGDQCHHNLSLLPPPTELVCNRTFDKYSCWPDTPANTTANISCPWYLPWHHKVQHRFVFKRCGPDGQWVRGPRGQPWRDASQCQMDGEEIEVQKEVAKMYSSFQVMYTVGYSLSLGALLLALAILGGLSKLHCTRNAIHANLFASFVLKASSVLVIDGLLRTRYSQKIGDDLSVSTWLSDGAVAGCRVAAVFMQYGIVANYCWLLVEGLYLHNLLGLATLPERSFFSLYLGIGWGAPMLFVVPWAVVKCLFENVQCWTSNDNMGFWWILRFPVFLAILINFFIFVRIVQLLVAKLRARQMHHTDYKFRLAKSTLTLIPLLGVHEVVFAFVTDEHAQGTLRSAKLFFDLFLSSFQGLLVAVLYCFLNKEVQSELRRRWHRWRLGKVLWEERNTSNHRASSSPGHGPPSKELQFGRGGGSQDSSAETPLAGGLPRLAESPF
Description: as §1

[3] = target: T3, GIP receptor (Homo sapiens, UniProt P48546); experiment: cAMP induction, firefly luciferase reporter assay in HEK293 cells co-transfected with GIP receptor; settings: EC50 (nM) at GIP Receptor, Table 6, Example 12
T3 sequence (P48546 22-466): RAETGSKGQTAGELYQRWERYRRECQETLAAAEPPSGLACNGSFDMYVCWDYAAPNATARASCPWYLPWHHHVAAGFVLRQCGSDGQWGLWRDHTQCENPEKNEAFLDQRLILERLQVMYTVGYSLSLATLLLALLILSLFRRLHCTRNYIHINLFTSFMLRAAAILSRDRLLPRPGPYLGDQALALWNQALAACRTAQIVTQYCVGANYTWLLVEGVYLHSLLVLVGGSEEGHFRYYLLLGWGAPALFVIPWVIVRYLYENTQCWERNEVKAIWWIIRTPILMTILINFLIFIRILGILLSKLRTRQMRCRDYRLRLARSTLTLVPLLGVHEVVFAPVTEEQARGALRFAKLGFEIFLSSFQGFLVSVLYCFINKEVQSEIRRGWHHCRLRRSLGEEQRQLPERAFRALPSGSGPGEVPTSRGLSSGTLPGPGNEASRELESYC

[4] = EC50 (nM) at GLP-1 Receptor, Table 4, Example 9, composite of multiple different activity assays
[5] = EC50 (nM) at Glucagon Receptor, Table 4, Example 9, composite of multiple different activity assays

| Compound | EC50 [1, 4] [nM] | EC50 [2, 5] [nM] | also measured |
| --- | --- | --- | --- |
| CCCCCCCCCCCCCCCC(=O)N[C@@H](CCC(=O)NCCCC[C@H](NC(=O)[C@H](CC(=O)O)NC(=O)[C@H](CO)NC(=O)[C@@H](NC(=O)[C@H](Cc1ccccc1)NC(=O)[C@@H](NC(=O)CNC(=O)[C@H](CCC(N)=O)NC(=O)[C@@H](CO)NC(=O)[C@@H](N)Cc1c[nH]cn1)[C@@H](C)O)[C@@H](C)O)C(=O)N[C@@H](CO)C(=O)N[C@@H](CCCCN)C(=O)N[C@@H](Cc1ccc(O)cc1)C(=O)N[C@@H](CC(C)C)C(=O)N[C@@H](CC(=O)O)C(=O)N[C@@H](CCC(=O)O)C(=O)N[C@@H](CCCNC(=N)N)C(=O)N[C@@H](CCCNC(=N)N)C(=O)N[C@@H](C)C(=O)NC(C)(C)C(=O)N[C@@H](CCC(=O)O)C(=O)N[C@@H](Cc1ccccc1)C(=O)N[C@H](C(=O)N[C@@H](CCC(N)=O)C(=O)N[C@@H](Cc1c[nH]c2ccccc12)C(=O)N[C@@H](CC(C)C)C(=O)N[C@@H](CC(C)C)C(=O)N[C@@H](CC(=O)O)C(=O)N[C@H](C(N)=O)[C@@H](C)O)C(C)C)C(=O)O [compound 30] (H-H[dS]QGTFTSDK([γGlu-Palmitoyl])SKYLDERRA[Aib]EFVQWLLDT-NH2; N-terminus assumed) | 0.0031 | 0.008 | – |
| CCCCCCCCCCCCCCCC(=O)N[C@@H](CCC(=O)N[C@@H](CCC(=O)NCCCC[C@H](NC(=O)[C@H](CC(=O)O)NC(=O)[C@H](CO)NC(=O)[C@@H](NC(=O)[C@H](Cc1ccccc1)NC(=O)[C@@H](NC(=O)CNC(=O)[C@H](CCC(N)=O)NC(=O)C(C)(C)NC(=O)[C@@H](N)Cc1c[nH]cn1)[C@@H](C)O)[C@@H](C)O)C(=O)N[C@@H](CO)C(=O)N[C@@H](CCCCN)C(=O)N[C@@H](Cc1ccc(O)cc1)C(=O)N[C@@H](CC(C)C)C(=O)N[C@@H](CC(=O)O)C(=O)NC(C)(C)C(=O)N[C@@H](CCCNC(=N)N)C(=O)N[C@@H](C)C(=O)N[C@@H](C)C(=O)N[C@@H](CCC(N)=O)C(=O)N[C@@H](CC(=O)O)C(=O)N[C@@H](Cc1ccccc1)C(=O)N[C@H](C(=O)N[C@@H](CCC(N)=O)C(=O)N[C@@H](Cc1c[nH]c2ccccc12)C(=O)N[C@@H](CC(C)C)C(=O)N[C@@H](CCSC)C(=O)N[C@@H](CC(=O)O)C(=O)NCC(=O)NCC(=O)N1CCC[C@H]1C(=O)N[C@@H](CO)C(=O)N[C@@H](CO)C(=O)NCC(=O)N[C@@H](C)C(=O)N1CCC[C@H]1C(=O)N1CCC[C@H]1C(=O)N1CCC[C@H]1C(=O)N[C@@H](CO)C(N)=O)C(C)C)C(=O)O)C(=O)O [compound 33] (H-H[Aib]QGTFTSDK([γGlu-γGlu-Palmitoyl])SKYLD[Aib]RAAQDFVQWLMDGGPSSGAPPPS-NH2) | 0.004 | 0.005 | – |
| CCCCCCCCCCCCCCCC(=O)N[C@@H](CCC(=O)NCCCC[C@H](NC(=O)[C@H](CC(=O)O)NC(=O)[C@H](CO)NC(=O)[C@@H](NC(=O)[C@H](Cc1ccccc1)NC(=O)[C@@H](NC(=O)CNC(=O)[C@H](CCC(N)=O)NC(=O)C(C)(C)NC(=O)[C@@H](N)Cc1cnc[nH]1)[C@@H](C)O)[C@@H](C)O)C(=O)N[C@@H](CO)C(=O)N[C@@H](CCCCN)C(=O)N[C@@H](Cc1ccc(O)cc1)C(=O)N[C@@H](CC(C)C)C(=O)N[C@@H](CC(=O)O)C(=O)N[C@@H](CCC(=O)O)C(=O)N[C@@H](CCCNC(=N)N)C(=O)N[C@@H](C)C(=O)N[C@@H](C)C(=O)N[C@@H](CCC(N)=O)C(=O)N[C@@H](CC(=O)O)C(=O)N[C@@H](Cc1ccccc1)C(=O)N[C@H](C(=O)N[C@@H](CCC(N)=O)C(=O)N[C@@H](Cc1c[nH]c2ccccc12)C(=O)N[C@@H](CC(C)C)C(=O)N[C@@H](CC(C)C)C(=O)N[C@@H](CC(=O)O)C(=O)NCC(=O)N[C@@H](CCCNC(=N)N)C(=O)NCC(N)=O)C(C)C)C(=O)O [compound 29] | 0.003 | 0.007 | – |
| H[Aib]QGTFTSDYSKYLDERAAQDFVQWLLDAGPSSGAPPPSK([γGlu-γGlu-Palmitoyl])G-NH2 [SEQ ID NO: 204] | – | – | EC50 ([1]; EC50 (nM) at GLP-1 receptor, Table 16, Example 24): 0.001 nM; EC50 ([2]; EC50 (nM) at glucagon receptor, Table 16, Example 24): 0.003 nM |
| CCCCCCCCCCCCCCCC(=O)N[C@@H](CCC(=O)NCCCC[C@H](NC(=O)[C@H](CC(=O)O)NC(=O)[C@H](CO)NC(=O)[C@@H](NC(=O)[C@H](Cc1ccccc1)NC(=O)[C@@H](NC(=O)CNC(=O)[C@H](CCC(N)=O)NC(=O)[C@@H](CO)NC(=O)C(C)(C)c1c[nH]cn1)[C@@H](C)O)[C@@H](C)O)C(=O)N[C@@H](CO)C(=O)N[C@@H](CCCCN)C(=O)N[C@@H](Cc1ccc(O)cc1)C(=O)N[C@@H](CC(C)C)C(=O)N[C@@H](CC(=O)O)C(=O)N[C@@H](CCC(=O)O)C(=O)N[C@@H](CCCNC(=N)N)C(=O)N[C@@H](C)C(=O)N[C@@H](C)C(=O)N[C@@H](CCC(N)=O)C(=O)N[C@@H](CC(=O)O)C(=O)N[C@@H](Cc1ccccc1)C(=O)N[C@H](C(=O)N[C@@H](CCC(N)=O)C(=O)N[C@@H](Cc1c[nH]c2ccccc12)C(=O)N[C@@H](CC(C)C)C(=O)N[C@@H](CC(C)C)C(=O)N[C@@H](CC(=O)O)C(=O)N[C@H](C(N)=O)[C@@H](C)O)C(C)C)C(=O)O [compound 32] | – | – | EC50 [1]: 0.003 nM; EC50 ([2]; Table 4, Example 9, composite of multiple different activity assays): 0.004 nM |
| CC[C@H](C)[C@H](NC(=O)[C@H](CO)NC(=O)[C@H](Cc1ccc(O)cc1)NC(=O)[C@H](CC(=O)O)NC(=O)[C@H](CO)NC(=O)[C@@H](NC(=O)[C@H](Cc1ccccc1)NC(=O)[C@@H](NC(=O)CNC(=O)[C@H](CCC(N)=O)NC(=O)[C@@H](CO)NC(=O)[C@@H](N)Cc1c[nH]cn1)[C@@H](C)O)[C@@H](C)O)C(=O)N[C@@H](Cc1ccc(O)cc1)C(=O)N[C@@H](CC(C)C)C(=O)N[C@@H](CC(=O)O)C(=O)N[C@@H](CCCCN)C(=O)N[C@@H](CCC(N)=O)C(=O)N[C@@H](C)C(=O)N[C@@H](C)C(=O)NC(C)(C)C(=O)N[C@@H](CCC(=O)O)C(=O)N[C@@H](Cc1ccccc1)C(=O)N[C@H](C(=O)N[C@@H](CC(N)=O)C(=O)N[C@@H](Cc1c[nH]c2ccccc12)C(=O)N[C@@H](CC(C)C)C(=O)N[C@@H](CC(C)C)C(=O)N[C@@H](C)C(=O)NCC(=O)NCC(=O)N1CCC[C@H]1C(=O)N[C@@H](CO)C(=O)N[C@@H](CO)C(=O)NCC(=O)N[C@@H](C)C(=O)N1CCC[C@H]1C(=O)N1CCC[C@H]1C(=O)N1CCC[C@H]1C(=O)N[C@@H](CO)C(=O)N[C@@H](CS)C(N)=O)C(C)C [compound 48] (H-H[dS]QGTFTSDYSIYLDKQAA[Aib]EFVNWLLAGGPSSGAPPPSC-NH2; N-terminus assumed) | – | – | EC50 ([1]; EC50 (nM) at GLP-1 Receptor, Table 6, Example 12): 0.01 nM; EC50 [3]: 0.433 nM |
| CCCCCCCCCCCCCCCC(=O)N[C@@H](CCC(=O)NCCCC[C@H](NC(=O)[C@H](CC(=O)O)NC(=O)[C@H](CO)NC(=O)[C@@H](NC(=O)[C@H](Cc1ccccc1)NC(=O)[C@@H](NC(=O)CNC(=O)[C@H](CCC(N)=O)NC(=O)[C@@H](CO)NC(=O)[C@@H](N)Cc1c[nH]cn1)[C@@H](C)O)[C@@H](C)O)C(=O)N[C@@H](CO)C(=O)N[C@@H](CCCCN)C(=O)N[C@@H](Cc1ccc(O)cc1)C(=O)N[C@@H](CC(C)C)C(=O)N[C@@H](CC(=O)O)C(=O)N[C@@H](CCC(=O)O)C(=O)N[C@@H](CCCNC(=N)N)C(=O)N[C@@H](C)C(=O)N[C@@H](C)C(=O)N[C@@H](CCC(N)=O)C(=O)N[C@@H](CC(=O)O)C(=O)N[C@@H](Cc1ccccc1)C(=O)N[C@H](C(=O)N[C@@H](CCC(N)=O)C(=O)N[C@@H](Cc1c[nH]c2ccccc12)C(=O)N[C@@H](CC(C)C)C(=O)N[C@@H](CC(C)C)C(=O)N[C@@H](CC(=O)O)C(=O)NCC(=O)NCC(=O)N1CCC[C@H]1C(=O)N[C@@H](CO)C(=O)N[C@@H](CO)C(=O)NCC(=O)N[C@@H](C)C(=O)N1CCC[C@H]1C(=O)N1CCC[C@H]1C(=O)N1CCC[C@H]1C(=O)N[C@@H](CO)C(N)=O)C(C)C)C(=O)O [compound 27] | 0.002 | 0.003 | – |
